Experimental findings from patent US20240133877A1, “PRODUCTS AND METHODS FOR MONITORING ADHERENCE TO NUCLEOSIDE REVERSE TRANSCRIPTASE INHIBITOR THERAPY” (priority 2017, published 2024) are described below.

Data set [1] has as its system pAb 313. Kind of data set: Cross reactivity of compounds spiked in buffer with pAb 313. In kind it is binding, rabbit. As to conditions: compound spiked in buffer. Here is the method:
(§1) To identify which compounds were causing cross reactivity, potentially cross-reactive compounds (compounds with similar chemical structure to TFV) were spiked in buffer and tested with the pAbs. We tested 11 compounds, and their percent cross reactivity was calculated for each of the substances in Table 3 to each antibody.

Data set [2] relates to pAb 312. Description: Cross reactivity of compounds spiked in buffer with pAb 312. In kind it is binding, rabbit. Particulars: compound spiked in buffer. Here is the method: as §1
A short description of data set [3]: Urine and plasma TFV levels by LC-MS/MS in participants taking TAF. The class given is in vivo, human. How it is done: Blood and urine samples were collected from 3 cohorts of patients: (1) 10 HIV positive participants with suppressed virus on a TAF-based regimen, (2) 10 HIV- participants administered 1 dose of FTC/TAF followed by urine and plasma sampling for 7 days starting 1-3 hours post-dose, and (3) 10 HIV- participants administered 7 daily doses of FTC/TAF followed by urine and plasma sampling for 10 days starting 1-3 hours after the last dose. Samples were analyzed using liquid chromatography-tandem mass spectrometry (LC-MS/MS) with high sensitivity and specificity for TFV. Samples from cohort 2 were compared to a historical cohort administered one dose of FTC/TD F.

[4] abbreviates: HIV-positive participants on TAF-based regimen (Cohort 1).

Some results are limits rather than exact numbers.

In the case of `Nc1ncnc2c1ncn2[C@H]1C[C@H](O)[C@@H](COP(=O)(O)OP(=O)(O)OP(=O)(O)O)O1` [2′ Deoxyadenosine 5′ Triphosphate], the “Cross Reactivity of 313 (vs TFV standard)” value in data set [1] was “None”. Further, in data set [2], the “Cross Reactivity of 312 (vs TFV standard)” value is recorded as “None”.
Regarding `Nc1nc2c(ncn2[C@H]2C[C@H](O)[C@@H](COP(=O)(O)OP(=O)(O)OP(=O)(O)O)O2)c(=O)[nH]1` [2′Deoxyguanosine 5′ Triphosphate], the “Cross Reactivity of 313 (vs TFV standard)” value in data set [1] was “None”. The “Cross Reactivity of 312 (vs TFV standard)” value in data set [2] is on record as “None”.
On to `Nc1ncnc2c1ncn2CCOCP(=O)(O)O` [Adefovir], for which the “Cross Reactivity of 313 (vs TFV standard)” value in data set [1] is given as “Reactive (0.1%)”. In data set [2], the “Cross Reactivity of 312 (vs TFV standard)” value was “Reactive (0.1%)”.
With `Nc1ncnc2c1ncn2[C@@H]1O[C@H](CO)[C@@H](OP(=O)(O)O)[C@H]1O` [Adenosine 3′ Monophosphate], the “Cross Reactivity of 313 (vs TFV standard)” value in data set [1] is recorded as “Reactive (0.1%)”. For the same molecule, the “Cross Reactivity of 312 (vs TFV standard)” value in data set [2] is given as “Reactive (0.1%)”.
For the molecule `Nc1ncnc2c1ncn2[C@@H]1O[C@H](COP(=O)(O)O)[C@@H](O)[C@H]1O.O` [Adenosine 5′ Monophosphate Monohydrate], the “Cross Reactivity of 313 (vs TFV standard)” value in data set [1] is on record as “None”. In data set [2], the “Cross Reactivity of 312 (vs TFV standard)” value is recorded as “None”.
In the case of `Nc1ncnc2c1ncn2[C@@H]1O[C@H](COP(=O)([O-])OP(=O)([O-])OP(=O)(O)O)[C@@H](O)[C@H]1O.[Na+].[Na+]` [Adenosine 5′ Triphosphate Disodium], the “Cross Reactivity of 313 (vs TFV standard)” value in data set [1] is “None”. Besides, in data set [2], the “Cross Reactivity of 312 (vs TFV standard)” value is reported as “None”.
With `Nc1ncnc2c1ncn2[C@@H]1O[C@H](CO)[C@@H](O)[C@H]1O` [Adenosine], in data set [1], the “Cross Reactivity of 313 (vs TFV standard)” value is recorded as “Reactive (0.1%)”. Also, in data set [2], the “Cross Reactivity of 312 (vs TFV standard)” value is on record as “None”.
On to `Nc1ccn(C[C@@H](CO)OCP(=O)(O)O)c(=O)n1` [Cidofovir Hydrate], for which the “Cross Reactivity of 313 (vs TFV standard)” value in data set [1] was “Reactive (5%)”. Further, the “Cross Reactivity of 312 (vs TFV standard)” value in data set [2] is recorded as “None”.
For the molecule `Nc1nc2c(ncn2[C@@H]2O[C@H](COP(=O)([O-])[O-])[C@@H](O)[C@H]2O)c(=O)[nH]1.[Na+].[Na+]` [Guanosine 5′ Monophosphate Disodium], the “Cross Reactivity of 313 (vs TFV standard)” value in data set [1] is recorded as “None”. Also, in data set [2], the “Cross Reactivity of 312 (vs TFV standard)” value is listed as “None”.
For `CNc1ncnc2c1ncn2[C@@H]1O[C@H](COP(=O)(O)O)[C@@H](O)[C@H]1O` [N6 Methyladenosine 5′ Monophosphate], the “Cross Reactivity of 313 (vs TFV standard)” value in data set [1] is “None”. In data set [2], the “Cross Reactivity of 312 (vs TFV standard)” value is “Reactive (0.1%)”.
`CNc1ncnc2c1ncn2[C@@H]1O[C@H](CO)[C@@H](O)[C@H]1O` [N6 Methyladenosine]: the “Cross Reactivity of 313 (vs TFV standard)” value in data set [1] is “None”. The “Cross Reactivity of 312 (vs TFV standard)” value in data set [2] was “None”.
On to `C[C@H](Cn1cnc2c(N)ncnc21)OCP(=O)(O)O` [TFV, tenofovir], for which the “urine TFV concentration” value in data set [3] (7 consecutive doses FTC/TAF, 1-3 hours after discontinuation of dosing) is more than 1000 ng/mL; in data set [3] (setting [4]) it was 1000 ng/mL; in data set [3] (single dose FTC/TAF, HIV- subjects, 1-3 hours post-dose) it was 100 to 1000 ng/mL. Also, in data set [3] (7 consecutive doses FTC/TAF, up to 7 days post discontinuation, in 8 out of 10 participants), the “urine TFV level” value was more than 100 ng/mL. The “TFV concentration higher in urine than plasma” value in data set [3] (HIV-positive participants on TAF-based regimen) turned out to be 2 logs. Also, the “plasma TFV concentration” value in data set [3] (setting [4]) was 10 ng/mL; in data set [3] (both HIV-negative cohorts (FTC/TAF), all time points) it was not above 10 ng/mL. The concentration at 144 h in data set [3] (human, urine, oral, single dose FTC/TAF, for 6 days, in 8 of 10 participants, read-out: urine TFV concentration remaining) was more than 100 ng/mL. Besides, the “persistence of TFV in urine at detectable concentrations” value in data set [3] (patients taking FTC/TAF) is “at least 7 days”. Besides, the “urine TFV concentrations after FTC/TAF versus historical cohort administered FTC/TDF” value in data set [3] (single dose) is recorded as “comparable”.
